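Briefly, cells in 96-well plates were exposed to five compound concentrations for 48 h, and endpoints were estimated by linear interpolation. TGI: concentration producing complete growth inhibition.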
Assays:
Assay in all cases: inhibition of tumour cell growth, NCI panel, 48 h
OVCAR-5 ovarian = system: OVCAR-5 ovarian
U251 CNS = system: U251 CNS
UO-31 renal = system: UO-31 renal
SN12C renal = system: SN12C renal
MDA-MB-435 = system: MDA-MB-435
UACC-62 melanoma = system: UACC-62 melanoma
NCI-H460 lung = system: NCI-H460 lung
DU-145 prostate = system: DU-145 prostate
HOP-62 NSCLC = system: HOP-62 NSCLC
CAKI-1 renal = system: CAKI-1 renal
SF-539 CNS = system: SF-539 CNS
MDA-N = system: MDA-N
RPMI-8226 leukemia = system: RPMI-8226 leukemia
MDA-MB-231 breast = system: MDA-MB-231 breast
BT-549 breast = system: BT-549 breast
SNB-19 CNS = system: SNB-19 CNS
RXF 393 renal = system: RXF 393 renal
COLO 205 colon = system: COLO 205 colon
PC-3 prostate = system: PC-3 prostate
A549 NSCLC = system: A549 NSCLC
M14 melanoma = system: M14 melanoma
OVCAR-3 ovarian = system: OVCAR-3 ovarian
SK-MEL-2 melanoma = system: SK-MEL-2 melanoma
SF-268 CNS = system: SF-268 CNS
HS 578T breast = system: HS 578T breast
MALME-3M melanoma = system: MALME-3M melanoma
SF-295 CNS = system: SF-295 CNS
SK-OV-3 ovarian = system: SK-OV-3 ovarian
UACC-257 melanoma = system: UACC-257 melanoma
ACHN renal = system: ACHN renal
T-47D breast = system: T-47D breast
NCI-H226 lung = system: NCI-H226 lung
NCI/ADR-RES ovarian = system: NCI/ADR-RES ovarian
MCF7 breast = system: MCF7 breast
TK-10 renal = system: TK-10 renal
OVCAR-4 ovarian = system: OVCAR-4 ovarian
HCC-2998 colon = system: HCC-2998 colon
CCRF-CEM leukemia = system: CCRF-CEM leukemia
HCT-15 colon = system: HCT-15 colon
K-562 leukemia = system: K-562 leukemia
KM12 colon = system: KM12 colon
NCI-H23 lung = system: NCI-H23 lung
MOLT-4 leukemia = system: MOLT-4 leukemia
SK-MEL-5 melanoma = system: SK-MEL-5 melanoma
786-0 renal = system: 786-0 renal
EKVX NSCLC = system: EKVX NSCLC
OVCAR-8 ovarian = system: OVCAR-8 ovarian
HL-60(TB) leukemia = system: HL-60(TB) leukemia
HCT-116 colon = system: HCT-116 colon
SR leukemia = system: SR leukemia
HT29 colon = system: HT29 colon
A498 renal = system: A498 renal
LOX IMVI melanoma = system: LOX IMVI melanoma
SK-MEL-28 melanoma = system: SK-MEL-28 melanoma
SW-620 colon = system: SW-620 colon
IGROV1 ovarian = system: IGROV1 ovarian
HOP-92 NSCLC = system: HOP-92 NSCLC
NCI-H522 lung = system: NCI-H522 lung
SNB-75 CNS = system: SNB-75 CNS

O=C(/C=C/c1cccc2ccccc12)c1ccccc1
TGI (OVCAR-5 ovarian): 28.8 µM
TGI (U251 CNS): 22 µM
TGI (UO-31 renal): 16.3 µM
TGI (SN12C renal): 24.9 µM
TGI (MDA-MB-435): 24.1 µM
TGI (UACC-62 melanoma): 25.3 µM
TGI (NCI-H460 lung): 37.2 µM
TGI (DU-145 prostate): 29 µM
TGI (HOP-62 NSCLC): 43 µM
TGI (CAKI-1 renal): 28 µM
TGI (SF-539 CNS): 15.6 µM
TGI (MDA-N): 23.9 µM
TGI (RPMI-8226 leukemia): 7.98 µM
TGI (MDA-MB-231 breast): 25.5 µM
TGI (BT-549 breast): 28.5 µM
TGI (SNB-19 CNS): 30.2 µM
TGI (RXF 393 renal): 27.5 µM
TGI (COLO 205 colon): 48.6 µM
TGI (PC-3 prostate): 20.4 µM
TGI (A549 NSCLC): > 52.4 µM
TGI (M14 melanoma): 32.9 µM
TGI (OVCAR-3 ovarian): 22.4 µM
TGI (SK-MEL-2 melanoma): 34.2 µM
TGI (SF-268 CNS): 32.6 µM
TGI (HS 578T breast): > 74.9 µM
TGI (MALME-3M melanoma): 26.9 µM
TGI (SF-295 CNS): 35.1 µM
TGI (SK-OV-3 ovarian): 34.2 µM
TGI (UACC-257 melanoma): 29.7 µM
TGI (ACHN renal): 26.9 µM
TGI (T-47D breast): 27.3 µM
TGI (NCI-H226 lung): 27.9 µM
TGI (NCI/ADR-RES ovarian): 33.6 µM
TGI (MCF7 breast): 15.1 µM
TGI (TK-10 renal): 17.6 µM
TGI (OVCAR-4 ovarian): 27.1 µM
TGI (HCC-2998 colon): 34.1 µM
TGI (CCRF-CEM leukemia): 87.3 µM
TGI (HCT-15 colon): 23.1 µM
TGI (K-562 leukemia): 8.69 µM
TGI (KM12 colon): > 42.2 µM
TGI (NCI-H23 lung): 28 µM
TGI (MOLT-4 leukemia): > 34.7 µM
TGI (SK-MEL-5 melanoma): 28.4 µM
TGI (786-0 renal): 23.5 µM
TGI (EKVX NSCLC): 26.3 µM
TGI (OVCAR-8 ovarian): 21.6 µM
TGI (HL-60(TB) leukemia): > 21.2 µM
TGI (HCT-116 colon): 24.1 µM
TGI (SR leukemia): > 100 µM
TGI (HT29 colon): 15.8 µM
TGI (A498 renal): 33.3 µM
TGI (LOX IMVI melanoma): 4.53 µM
TGI (SK-MEL-28 melanoma): 33.6 µM
TGI (SW-620 colon): 15.5 µM
TGI (IGROV1 ovarian): 20.5 µM
TGI (HOP-92 NSCLC): 33.6 µM
TGI (NCI-H522 lung): 25.2 µM
TGI (SNB-75 CNS): 30.6 µM

O=C1Nc2ccc(Br)cc2C1=Nc1ccc2c(c1)OCO2
TGI (OVCAR-5 ovarian): 51.9 µM
TGI (U251 CNS): 25.3 µM
TGI (UO-31 renal): 44.1 µM
TGI (SN12C renal): 34.4 µM
TGI (MDA-MB-435): 22.4 µM
TGI (UACC-62 melanoma): 29.1 µM
TGI (NCI-H460 lung): 67.9 µM
TGI (DU-145 prostate): > 100 µM
TGI (HOP-62 NSCLC): 44.5 µM
TGI (CAKI-1 renal): 64.5 µM
TGI (SF-539 CNS): 37.3 µM
TGI (MDA-N): 30.4 µM
TGI (RPMI-8226 leukemia): 63.2 µM
TGI (MDA-MB-231 breast): 39.2 µM
TGI (BT-549 breast): 50.5 µM
TGI (SNB-19 CNS): > 100 µM
TGI (RXF 393 renal): 38.9 µM
TGI (COLO 205 colon): 31.9 µM
TGI (PC-3 prostate): 33.6 µM
TGI (A549 NSCLC): > 100 µM
TGI (M14 melanoma): 40.6 µM
TGI (OVCAR-3 ovarian): 61.8 µM
TGI (SK-MEL-2 melanoma): 35.3 µM
TGI (SF-268 CNS): > 100 µM
TGI (HS 578T breast): 98.7 µM
TGI (MALME-3M melanoma): 35.6 µM
TGI (SF-295 CNS): 78.7 µM
TGI (SK-OV-3 ovarian): > 100 µM
TGI (UACC-257 melanoma): 34.8 µM
TGI (ACHN renal): 68.7 µM
TGI (T-47D breast): > 100 µM
TGI (NCI-H226 lung): 60.8 µM
TGI (NCI/ADR-RES ovarian): 85.8 µM
TGI (MCF7 breast): 37 µM
TGI (TK-10 renal): 59.6 µM
TGI (OVCAR-4 ovarian): 17.1 µM
TGI (HCC-2998 colon): 30 µM
TGI (CCRF-CEM leukemia): 55.3 µM
TGI (HCT-15 colon): 53.4 µM
TGI (K-562 leukemia): 61.6 µM
TGI (KM12 colon): 44.5 µM
TGI (NCI-H23 lung): > 100 µM
TGI (MOLT-4 leukemia): 50.2 µM
TGI (SK-MEL-5 melanoma): 30 µM
TGI (786-0 renal): 48.2 µM
TGI (EKVX NSCLC): 74.8 µM
TGI (OVCAR-8 ovarian): > 100 µM
TGI (HL-60(TB) leukemia): 43.6 µM
TGI (HCT-116 colon): 33.6 µM
TGI (SR leukemia): 73.5 µM
TGI (HT29 colon): 39.1 µM
TGI (A498 renal): 97.3 µM
TGI (LOX IMVI melanoma): 64.9 µM
TGI (SK-MEL-28 melanoma): > 100 µM
TGI (SW-620 colon): 74.1 µM
TGI (IGROV1 ovarian): > 100 µM
TGI (HOP-92 NSCLC): > 100 µM
TGI (NCI-H522 lung): 43 µM
TGI (SNB-75 CNS): 98.4 µM

— PubChem BioAssay (NCI)
